Assay results published in ChEMBL document CHEMBL1287691, “Pyrazole derivatives from azines of substituted phenacyl aryl/cyclohexyl sulfides and their antimycobacterial activity” (2010).
Converted amounts (≈) assume the structure as drawn.

Test system: Mycobacterium tuberculosis
Assay: Antimycobacterial activity against Mycobacterium tuberculosis H37Rv by agar dilution method
Type: functional

SMILES | MIC [µg/mL]
Clc1ccc(S/C=C(\c2ccc3ccccc3c2)n2cc(Sc3ccc(Cl)cc3)c(-c3ccc4ccccc4c3)n2)cc1 | 6.25 (≈ 9.89 µM)
Clc1ccc(S/C=C(/c2ccc3ccccc3c2)n2cc(Sc3ccc(Cl)cc3)c(-c3ccc4ccccc4c3)n2)cc1 | 12.5 (≈ 19.8 µM)
Clc1ccc(S/C=C(/c2ccc(Cl)cc2)n2cc(Sc3ccc(Cl)cc3)c(-c3ccc(Cl)cc3)n2)cc1 | 3.13 (≈ 5.21 µM)
Clc1ccc(S/C=C(/c2ccccc2)n2cc(Sc3ccc(Cl)cc3)c(-c3ccccc3)n2)cc1 | > 25
C(/SC1CCCCC1)=C(\c1ccccc1)n1cc(SC2CCCCC2)c(-c2ccccc2)n1 | 12.5 (≈ 26.3 µM)
Cc1ccc(/C(=C/SC2CCCCC2)n2cc(SC3CCCCC3)c(-c3ccc(C)cc3)n2)cc1 | 6.25 (≈ 12.4 µM)
COc1ccc(/C(=C/SC2CCCCC2)n2cc(SC3CCCCC3)c(-c3ccc(OC)cc3)n2)cc1 | 12.5 (≈ 23.4 µM)
O=[N+]([O-])c1ccc(/C(=C/SC2CCCCC2)n2cc(SC3CCCCC3)c(-c3ccc([N+](=O)[O-])cc3)n2)cc1 | 1.56 (≈ 2.76 µM)
Clc1ccc(S/C=C(\c2ccc(Cl)cc2)n2cc(Sc3ccc(Cl)cc3)c(-c3ccc(Cl)cc3)n2)cc1 | 1.56 (≈ 2.6 µM)
COc1ccc(/C(=C\Sc2ccc(Cl)cc2)n2cc(Sc3ccc(Cl)cc3)c(-c3ccc(OC)cc3)n2)cc1 | 6.25 (≈ 10.6 µM)
Clc1ccc(S/C=C(\c2ccccc2)n2cc(Sc3ccc(Cl)cc3)c(-c3ccccc3)n2)cc1 | 12.5 (≈ 23.5 µM)
Cc1ccc(/C(=C\Sc2ccc(Cl)cc2)n2cc(Sc3ccc(Cl)cc3)c(-c3ccc(C)cc3)n2)cc1 | 6.25 (≈ 11.2 µM)
Cc1ccc(S/C=C(\c2ccc(Cl)cc2)n2cc(Sc3ccc(C)cc3)c(-c3ccc(Cl)cc3)n2)cc1 | 12.5 (≈ 22.3 µM)
Clc1ccc(/C(=C\Sc2ccccc2)n2cc(Sc3ccccc3)c(-c3ccc(Cl)cc3)n2)cc1 | 25 (≈ 47 µM)
C(/SC1CCCCC1)=C(/c1ccccc1)n1cc(SC2CCCCC2)c(-c2ccccc2)n1 | 6.25 (≈ 13.2 µM)
Cc1ccc(/C(=C\SC2CCCCC2)n2cc(SC3CCCCC3)c(-c3ccc(C)cc3)n2)cc1 | 3.13 (≈ 6.23 µM)
COc1ccc(/C(=C\SC2CCCCC2)n2cc(SC3CCCCC3)c(-c3ccc(OC)cc3)n2)cc1 | 3.13 (≈ 5.85 µM)
Clc1ccc(/C(=C\SC2CCCCC2)n2cc(SC3CCCCC3)c(-c3ccc(Cl)cc3)n2)cc1 | 1.56 (≈ 2.87 µM)
O=[N+]([O-])c1ccc(/C(=C\SC2CCCCC2)n2cc(SC3CCCCC3)c(-c3ccc([N+](=O)[O-])cc3)n2)cc1 | 0.78 (≈ 1.38 µM)
Clc1ccc(/C(=C/Sc2ccccc2)n2cc(Sc3ccccc3)c(-c3ccc(Cl)cc3)n2)cc1 | > 25
Cc1ccc(S/C=C(/c2ccc(Cl)cc2)n2cc(Sc3ccc(C)cc3)c(-c3ccc(Cl)cc3)n2)cc1 | 12.5 (≈ 22.3 µM)
CC[C@@H](CO)NCCN[C@@H](CC)CO [ETHAMBUTOL] | 1.56 (≈ 7.64 µM)
NNC(=O)c1ccncc1 [ISONIAZID] | 0.05 (≈ 0.365 µM)
NC(=O)c1cnccn1 [PYRAZINAMIDE] | 6.25 (≈ 50.8 µM)

Test system: Mycobacterium tuberculosis
Assay: Antimycobacterial activity against Mycobacterium tuberculosis H37Rv at 6.25 ug/ml
Type: functional

SMILES | inhibition at 6.25 µg/mL [%]
CC(=O)/C(=N/Nc1c(C)n[nH]c1C)C(=O)O | 29
COCC(=O)/C(=N/Nc1c(C)n[nH]c1C)C(=O)OC | 28
